# Laboratory results: patent publication US20260262643A1, “HERBICIDAL BENZOXAZINES” (FMC CORPORATION, priority 2022, published 2026)
# Legend:
# green foxtail [1] = experiment: Test C preemergence; format: in vivo, Setaria viridis; settings: 0 to 100 scale (0 no effect, 100 complete control)
# Outline: (§1)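 Greenhouse herbicide screen, 10-day duration. Test chemicals in solvent/surfactant blend were sprayed onto soil at sowing (pre) or onto 2–10 cm seedlings at one to two leaves (post); injury scored visually against controls, 0 no effect to 100 complete control.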
# ryegrass, Italian [2] = experiment: Test C postemergence; format: in vivo, Lolium multiflorum; settings: 10 days
# Outline: as §1
# barnyardgrass [3] = experiment: Test D flooded paddy test; format: in vivo, Echinochloa crus-galli; settings: 250 g ai/ha, applied to paddy water, visual rating after 13 to 14 days, scale 0 to 100 (0 no effect, 100 complete control)
# Outline: (§2)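 Compounds go straight into paddy water over 2-leaf plants in pots flooded to 3 cm. Greenhouse holding lasts 13 to 14 days. Injury is scored by eye against controls from 0 (none) to 100 (complete control).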
# kochia [4] = experiment: Test C postemergence; format: in vivo, Bassia scoparia; settings: 10 days
# Outline: as §1
# rice = experiment: Test D flooded paddy test; format: in vivo, Oryza sativa; settings: 250 g ai/ha, applied to paddy water, visual rating after 13 to 14 days, scale 0 to 100 (0 no effect, 100 complete control)
# Outline: as §2
# barnyardgrass [5] = experiment: Test C postemergence; format: in vivo, Echinochloa crusgalli; settings: 10 days
# Outline: as §1
# blackgrass [6] = experiment: Test C postemergence; format: in vivo, Alopecurus myosuroides; settings: 10 days
# Outline: as §1
# corn [7] = experiment: Test C postemergence; format: in vivo, Zea mays; settings: 10 days
# Outline: as §1
# barnyardgrass [8] = experiment: Test C preemergence; format: in vivo, Echinochloa crusgalli; settings: 0 to 100 scale (0 no effect, 100 complete control)
# Outline: as §1
# oat, wild [9] = experiment: Test C postemergence; format: in vivo, Avena fatua; settings: 10 days
# Outline: as §1
# wheat [10] = experiment: Test C preemergence; format: in vivo, Triticum aestivum; settings: 0 to 100 scale (0 no effect, 100 complete control)
# Outline: as §1
# ragweed [11] = experiment: Test C postemergence; format: in vivo, Ambrosia artemisiifolia; settings: 10 days
# Outline: as §1
# sedge, umbrella = experiment: Test D flooded paddy test; format: in vivo, Cyperus difformis; settings: 250 g ai/ha, applied to paddy water, visual rating after 13 to 14 days, scale 0 to 100 (0 no effect, 100 complete control)
# Outline: as §2
# soybean [12] = experiment: Test C postemergence; format: in vivo, Glycine max; settings: 10 days
# Outline: as §1
# corn [13] = experiment: Test C preemergence; format: in vivo, Zea mays; settings: 0 to 100 scale (0 no effect, 100 complete control)
# Outline: as §1
# ragweed [14] = experiment: Test C preemergence; format: in vivo, Ambrosia artemisiifolia; settings: 0 to 100 scale (0 no effect, 100 complete control)
# Outline: as §1
# ryegrass, Italian [15] = experiment: Test C preemergence; format: in vivo, Lolium multiflorum; settings: 0 to 100 scale (0 no effect, 100 complete control)
# Outline: as §1
# green foxtail [16] = experiment: Test C postemergence; format: in vivo, Setaria viridis; settings: 10 days
# Outline: as §1
# blackgrass [17] = experiment: Test C preemergence; format: in vivo, Alopecurus myosuroides; settings: 0 to 100 scale (0 no effect, 100 complete control)
# Outline: as §1
# pigweed, palmer [18] = experiment: Test C postemergence; format: in vivo, Amaranthus palmeri; settings: 10 days
# Outline: as §1
# soybean [19] = experiment: Test C preemergence; format: in vivo, Glycine max; settings: 0 to 100 scale (0 no effect, 100 complete control)
# Outline: as §1
# kochia [20] = experiment: Test C preemergence; format: in vivo, Bassia scoparia; settings: 0 to 100 scale (0 no effect, 100 complete control)
# Outline: as §1
# ducksalad = experiment: Test D flooded paddy test; format: in vivo, Heteranthera limosa; settings: 250 g ai/ha, applied to paddy water, visual rating after 13 to 14 days, scale 0 to 100 (0 no effect, 100 complete control)
# Outline: as §2
# horseweed = experiment: Test C postemergence; format: in vivo, Erigeron canadensis; settings: 10 days
# Outline: as §1
# wheat [21] = experiment: Test C postemergence; format: in vivo, Triticum aestivum; settings: 10 days
# Outline: as §1
# oat, wild [22] = experiment: Test C preemergence; format: in vivo, Avena fatua; settings: 0 to 100 scale (0 no effect, 100 complete control)
# Outline: as §1
# pigweed, palmer [23] = experiment: Test C preemergence; format: in vivo, Amaranthus palmeri; settings: 0 to 100 scale (0 no effect, 100 complete control)
# Outline: as §1
# [24] = Preemergence, 500 g ai/ha, visual rating after 10 days
# [25] = Test C, preemergence, 125 g ai/ha
# [26] = 125 g ai/ha, postemergence, 0 to 100 scale, 0 no effect, 100 complete control
# [27] = Postemergence, 500 g ai/ha, visual 0 to 100 scale (0 no effect, 100 complete control)
smiles,measurement,setting,value
COc1cc(C(=O)N2C[C@H](C)Oc3c(Cl)cccc32)cc(-n2cnc(C)n2)c1 [Compound 215],"Plant response rating, Foxtail, Green",green foxtail [1]; [24],100
same,"Foxtail, Green plant response rating",green foxtail [1]; [25],100
same,"Plant response rating, Ryegrass, Italian","ryegrass, Italian [2]; [26]",70
same,"Plant response rating, Ryegrass, Italian","ryegrass, Italian [2]; [27]",90
same,"Plant response rating, Barnyardgrass (Flood)",barnyardgrass [3],50
same,"Plant response rating, Kochia",kochia [4]; [26],80
same,"Plant response rating, Kochia",kochia [4]; [27],90
same,"Plant response rating, Rice (Flood)",rice,55
same,"Plant response rating, Barnyardgrass",barnyardgrass [5]; [26],60
same,"Plant response rating, Barnyardgrass",barnyardgrass [5]; [27],70
same,"Plant response rating, Blackgrass",blackgrass [6]; [26],90
same,"Plant response rating, Blackgrass",blackgrass [6]; [27],90
same,"Plant response rating, Corn",corn [7]; [26],70
same,"Plant response rating, Corn",corn [7]; [27],90
same,"Plant response rating, Barnyardgrass",barnyardgrass [8]; [24],100
same,Barnyardgrass plant response rating,barnyardgrass [8]; [25],80
same,"Plant response rating, Oat, Wild","oat, wild [9]; [26]",30
same,"Plant response rating, Oat, Wild","oat, wild [9]; [27]",50
same,"Plant response rating, Wheat",wheat [10]; [24],90
same,Wheat plant response rating,wheat [10]; [25],20
same,"Plant response rating, Ragweed",ragweed [11]; [26],60
same,"Plant response rating, Ragweed",ragweed [11]; [27],70
same,"Plant response rating, Sedge, Umbrella (Flood)","sedge, umbrella",100
same,"Plant response rating, Soybean",soybean [12]; [26],100
same,"Plant response rating, Soybean",soybean [12]; [27],100
same,"Plant response rating, Corn",corn [13]; [24],60
same,Corn plant response rating,corn [13]; [25],30
same,"Plant response rating, Ragweed",ragweed [14]; [24],30
same,Ragweed plant response rating,ragweed [14]; [25],0
same,"Plant response rating, Ryegrass, Italian","ryegrass, Italian [15]; [24]",100
same,"Ryegrass, Italian plant response rating","ryegrass, Italian [15]; [25]",90
same,"Plant response rating, Foxtail, Green",green foxtail [16]; [26],90
same,"Plant response rating, Foxtail, Green",green foxtail [16]; [27],90
same,"Plant response rating, Blackgrass",blackgrass [17]; [24],90
same,Blackgrass plant response rating,blackgrass [17]; [25],70
same,"Plant response rating, Pigweed, Palmer","pigweed, palmer [18]; [26]",90
same,"Plant response rating, Pigweed, Palmer","pigweed, palmer [18]; [27]",100
same,"Plant response rating, Soybean",soybean [19]; [24],100
same,Soybean plant response rating,soybean [19]; [25],80
same,"Plant response rating, Kochia",kochia [20]; [24],100
same,Kochia plant response rating,kochia [20]; [25],90
same,"Plant response rating, Ducksalad (Flood)",ducksalad,100
same,"Plant response rating, Horseweed",horseweed; [26],0
same,"Plant response rating, Horseweed",horseweed; [27],70
same,"Plant response rating, Wheat",wheat [21]; [26],30
same,"Plant response rating, Wheat",wheat [21]; [27],70
same,"Plant response rating, Oat, Wild","oat, wild [22]; [24]",90
same,"Oat, Wild plant response rating","oat, wild [22]; [25]",50
same,"Plant response rating, Pigweed, Palmer","pigweed, palmer [23]; [24]",100
same,"Pigweed, Palmer plant response rating","pigweed, palmer [23]; [25]",100
